Earlier results on 2 compounds are cited in patent US20050009919A1, “Treating cachexia and excessive catabolism with (-)-hydroxycitric acid” (priority 2003, published 2005).

As for `O=C(O)CC(O)(C(=O)O)C(O)C(=O)O` (single isomer, unassigned; (-)) [HCA, (−)-Hydroxycitric acid], for the setting “Heymsfield 1998, Mattes 2000”, the “Appetite suppression in clinical trials” value is on record as “failed to produce appetite suppression” and the “Weight change in clinical trials” value is “not-statistically-significant trends toward weight elevation”.

For the compound “calcium (−)-hydroxycitrate [reference compound]”, the “Anorectic results in clinical trials” value (1.2 grams to 3 grams of HCA per day, divided doses before meals) was “failed to produce anorectic results”.
